Experimental data published in article PMC10539501 (Nature Communications, 2023).
Starred links: 1 amine or outer side, 2 acyl side, 3 side chain; linkers in the order of their positions; H or OH if unused. Non-standard residues stand in square brackets, D forms with d. Residues, ends and D or L forms follow the SMILES beside them. X12 = C[C@@H](O)[C@H](N[*:1])C(=S)N[C@@H](Cc1ccccc1)C(=O)[*:2]; X3 = CC(C)C[C@H](N[*:1])C(=S)N[C@H](CC(C)C)C(=O)[*:2]; X16 = CC(C)C[C@H](N[*:1])C(=S)N[C@H](C)C(=O)[*:2]

How the values were obtained:
[1] = format: physicochemical
[2] = PAMPA passive permeability; format: in vitro ADME;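 note: passive permeability across an artificial membrane in 96-well pre-coated PAMPA plates, which lack transporters and efflux systems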
Experimental: Encouraged by this, the passive permeability of the analogs was evaluated using an artificial membrane (PAMPA), which measures permeability of compounds in the absence of transporters and efflux systems[32].
96-well BD Corning® pre-coated PAMPA plates were used following the supplier’s protocol, details in Supplementary Information.

physchem = settings: pH 7.4
[3] = Retention in hydrophobic C18 column by HPLC; settings: Supplementary Fig 3d, logD7.4 vs tR
[4] = format: physicochemical; remark: listed apart in the source
Excerpt: Since reduced solvation of S also contributes to the lipophilicity of the thioamidated peptides, we sought to estimate the global desolvation of the macrocyclic peptides, which is affected by solvation of both N(H) and C(S). […] Thus, we evaluated the desolvation potential of the cyclic peptides by determining the distribution coefficients in heptane-ethylene glycol (logDh/e), a solvent system that provides an experimental estimate of desolvation or hydrogen bond potential[38].

SSTR2 = target: T1, SSTR2 (Homo sapiens, UniProt P30874); assay: GloSensor assay, inhibition of forskolin-induced cAMP production; format: cell-based; settings: HEK293T cells expressing SSTR2, cAMP GloSensor
T1 construct: expressed in transfected cells; host or cells: HEK-293T (CRL-3216)
T1 sequence (P30874 whole entry): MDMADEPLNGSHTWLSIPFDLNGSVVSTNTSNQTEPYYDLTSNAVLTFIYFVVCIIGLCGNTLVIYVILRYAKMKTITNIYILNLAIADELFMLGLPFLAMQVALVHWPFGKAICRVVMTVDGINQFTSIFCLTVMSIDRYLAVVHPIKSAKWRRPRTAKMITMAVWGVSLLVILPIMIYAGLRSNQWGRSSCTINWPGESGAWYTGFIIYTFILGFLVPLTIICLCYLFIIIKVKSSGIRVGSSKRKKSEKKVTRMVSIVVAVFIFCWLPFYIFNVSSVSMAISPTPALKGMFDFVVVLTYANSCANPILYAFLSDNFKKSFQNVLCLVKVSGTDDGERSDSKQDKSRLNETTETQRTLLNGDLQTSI

SSTR5 = target: T2, SSTR5 (Homo sapiens, UniProt P35346); assay: as above; format: cell-based; settings: HEK293T cells expressing SSTR5, cAMP GloSensor
T2 construct: expressed in transfected cells; host or cells: HEK-293T (CRL-3216)
T2 sequence (P35346 whole entry): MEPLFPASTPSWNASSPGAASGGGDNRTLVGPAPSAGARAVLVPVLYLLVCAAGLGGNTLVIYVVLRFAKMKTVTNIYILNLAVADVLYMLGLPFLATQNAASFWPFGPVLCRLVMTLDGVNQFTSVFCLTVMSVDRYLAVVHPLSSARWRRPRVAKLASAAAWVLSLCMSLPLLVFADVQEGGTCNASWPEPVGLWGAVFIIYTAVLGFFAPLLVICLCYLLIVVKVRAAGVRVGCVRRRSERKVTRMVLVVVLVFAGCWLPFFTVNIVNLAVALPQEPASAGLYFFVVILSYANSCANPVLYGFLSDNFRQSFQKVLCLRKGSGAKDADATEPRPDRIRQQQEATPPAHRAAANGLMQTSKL
Experimental: HEK-293T cells (CRL-3216 from ATCC, procured from NCCS, Pune) were co-transfected with human somatostatin receptor subtypes 2 & 5, plasmid cDNA, and cAMP biosensor (pGloSensorTM-22F plasmid; Promega Corp.) using PEImax. Ligand incubation was followed by the addition and incubation of forskolin (FSK) to the plate. Dose-dependent inhibition of forskolin-induced cAMP production by the peptide ligands was measured using a luminescence plate reader. An elaborate description of the assay setup has been provided in Supplementary Information.

in vitro [5] = settings: both, human, plasma
in vitro [6] = settings: pig, simulated intestinal fluid
Experimental: We next assessed the stability of the macrocyclic peptides in Simulated Intestinal Fluid (SIF)[42], comprising of pancreatin, which is a mixture of several proteases produced by the exocrine cells of the porcine pancreas.
A stability assessment of the peptides was done in simulated gastric (SGF) and intestinal (SIF) fluids and human liver microsomes. The degradation kinetics of the aliquoted samples at desired time points were analyzed through RP-HPLC.

in vitro [7] = settings: both, human, plasma; remark: listed apart in the source

| SMILES | % solubility [1] [%] | Papp ([2]; Pe Avg) [×10⁻⁶ cm/s] | logD (physchem) | tR [3] [min] | Papp ([2]; Pe) [×10⁻⁶ cm/s] | logD heptane ethylene glycol [4] | binding against SSTR2 (in words) (SSTR2) | binding against SSTR5 (in words) (SSTR5) | fraction unbound (in vitro [5]) | half-life (in vitro [6]) [min] | half-life (in vitro [7]) [min] | Papp ([2]; Pe (PAMPA vs logD7.4)) [×10⁻⁶ cm/s] |
| --- | --- | --- | --- | --- | --- | --- | --- | --- | --- | --- | --- | --- |
| CC(C)C[C@@H]1NC(=O)[C@@H](CC(C)C)NC(=O)[C@H]2CCCN2C(=O)[C@H](CC(C)C)NC(=O)[C@@H](CC(C)C)NC(=S)[C@H](CC(C)C)NC(=O)[C@@H]2CCCN2C(=O)[C@@H](C)NC1=O [12h] (cyclo([X3]L[dP][dL]L[dA]P)) | 40 | 7.7 | 1.49 | 16.4 |  |  |  |  |  |  |  |  |
| CC(C)C[C@@H]1NC(=O)[C@@H]2CCCN2C(=O)[C@@H](C)NC(=S)[C@H](CC(C)C)NC(=O)[C@@H](CC(C)C)NC(=O)[C@H]2CCCN2C(=O)[C@H](CC(C)C)NC(=O)[C@@H](CC(C)C)NC1=O [12e] (cyclo([dL]L[dP][dL][X16]PL)) | 41 | 5.7 | 1.37 | 15 |  |  |  |  |  |  |  |  |
| CC(C)C[C@@H]1NC(=O)[C@@H](CC(C)C)NC(=O)[C@H]2CCCN2C(=O)[C@H](CC(C)C)NC(=O)[C@@H](CC(C)C)NC(=O)[C@H](CC(C)C)NC(=O)[C@@H]2CCCN2C(=O)[C@@H](C)NC1=O [compound 12, cyclo(-D-Leu^1-Leu-D-Pro-D-Leu-Leu-D-Ala-Pro-Leu^8-)] (cyclo(L[dA]PL[dL]L[dP][dL])) | 94 | 3 | 0.75 | 12.6 |  |  |  |  |  |  |  |  |
| C[C@@H](O)[C@@H]1NC(=O)[C@H](CCCCN)NC(=O)[C@@H](Cc2c[nH]c3ccccc23)NC(=O)[C@H](Cc2ccccc2)NC(=O)[C@@H]2CCCN2C(=O)[C@H](Cc2ccccc2)NC1=S [13c] (cyclo(F[dW]K[X12]P)) |  |  | -1.04 |  | 0.96 | -1.18 | complete loss in binding | complete loss in binding | 0.21 | 150 | 1980 |  |
| CC[C@H](C)[C@@H]1NC(=O)[C@@H]2CCCN2C(=O)[C@H]([C@@H](C)CC)NC(=O)[C@@H]2CCCN2C(=O)[C@H](Cc2ccccc2)NC(=O)[C@H](C)NC(=O)[C@H](C)NC1=O [compound 11, cyclo(-Ile^1-Ala-Ala-Phe-Pro-Ile-Pro^7-)] (cyclo(AAFPIPI)) | 95 | 0.4 | 0.1 | 5.299 |  |  |  |  |  |  |  | 0.41 |
